# Experimental data: patent US20120115941A1, “Compounds Affecting Glycemic Index” (SACRON INNOVATIONS PTY LIMITED, priority 2009, published 2012)
# Where two headings read alike, the source gives them in different places.
# What was measured:
# Assay type in all cases: biochemical
# [1] = target: Bakers yeast α-glucosidase; assay: Yeast α-glucosidase inhibition assay
# Experimental: (§1) Bakers yeast α-glucosidase [EC 3.2.1.20], and porcine pancreatic α-amylase [EC 3.2.1.1]were used during bioassay guided fractionation. Rat intestinal acetone powder was used as a source of mammalian α-glucosidase. The EnzChek® Ultra Amylase Assay kit (E-33651) was purchased from Molecular Probes (Eugene, Oreg., USA).
# (§2) In each bioassay the hydrolysis product was measured using the Victor 2 multi-plate reader (Wallac, Turku, Finland) and all samples were tested in duplicate or triplicate. Non-enzyme controls were subtracted from the enzyme absorbance and the percentage inhibition of test samples was calculated as: […]
# (§3) :wherein A and B are the absorbance of the hydrolysis product in the absence and presence of inhibitor, respectively. Percent inhibition values were expressed as mean±standard deviation. The IC50 was the concentration required for 50% inhibition of enzyme activity under the assay conditions, and values were calculated using a four-parameter fit by Microsoft Excel Solver.
# Yeast α-Glucosidase Inhibition Assay
# Extracts and fractions were dissolved in DMSO at 30 mg/mL or 10 mM for pure compounds, and diluted to working concentrations in sodium acetate buffer (pH 5.5). Final sample concentrations were 50 μg/mL, unless otherwise stated. The substrate, 4-methylumbelliferyl-α-D-glucopyranoside (84 μM, 45 μL), was added to 96-well plates containing 50 μL yeast α-glucosidase (3 mU/mL) and 5 μL of sample. The plate was mixed on an orbital shaker for 30 seconds and incubated for 20 minutes at 37° C. The reaction was stopped by the addition of 100 mM sodium-glycine buffer (100 μL, pH 10.6) and the plate was shaken for a further 30 seconds and the fluorescence intensity was measured at λex 355 nm, λem 460 nm. Fucoidan (20 μg/mL) was used as a positive inhibitor control, and sodium acetate buffer as a negative control.
# [2] = test system: rat intestinal α-glucosidase; assay: Mammalian α-glucosidase inhibition assay (rat intestinal acetone powder, maltose substrate)
# Experimental: as §1, §2, §3
# Mammalian α-Glucosidase Inhibition Assay
# The α-glucosidase inhibitory activity of pure compounds was measured as described previously, with some modifications. The crude enzyme solution was prepared by suspending 50 mg of rat intestinal acetone powder in 0.9% sodium chloride solution (1.5 mL). The mixture was homogenised by sonication in ice-cold water for 10 minutes and then centrifuged at 10,000 g for 30 minutes. The resulting supernatant was used in the assay.
# The substrate maltose (3 mM, 20 μL) was added to 96-well plates containing the crude α-glucosidase mixture (20 μL) and sample (10 μL). The microtitre plate was mixed on an orbital shaker for 30 seconds, incubated for 30 minutes at 37° C. and the reaction was stopped by the addition of 2 M Tris buffer (75 μL ). The glucose liberated was measured by adding 30 μL of the reaction mixture to the Glucose Hexokinase assay reagent (170 μL), which was mixed and incubated for 15 minutes at room temperature. The fluorescence of the mixture was measured at λex 340 nm, λem 470 nm.
# [3] = target: T1, porcine pancreatic α-amylase (Sus scrofa, UniProt P00690); assay: Porcine α-amylase inhibition assay (EnzChek Ultra Amylase Assay kit)
# T1 sequence (P00690 16-511): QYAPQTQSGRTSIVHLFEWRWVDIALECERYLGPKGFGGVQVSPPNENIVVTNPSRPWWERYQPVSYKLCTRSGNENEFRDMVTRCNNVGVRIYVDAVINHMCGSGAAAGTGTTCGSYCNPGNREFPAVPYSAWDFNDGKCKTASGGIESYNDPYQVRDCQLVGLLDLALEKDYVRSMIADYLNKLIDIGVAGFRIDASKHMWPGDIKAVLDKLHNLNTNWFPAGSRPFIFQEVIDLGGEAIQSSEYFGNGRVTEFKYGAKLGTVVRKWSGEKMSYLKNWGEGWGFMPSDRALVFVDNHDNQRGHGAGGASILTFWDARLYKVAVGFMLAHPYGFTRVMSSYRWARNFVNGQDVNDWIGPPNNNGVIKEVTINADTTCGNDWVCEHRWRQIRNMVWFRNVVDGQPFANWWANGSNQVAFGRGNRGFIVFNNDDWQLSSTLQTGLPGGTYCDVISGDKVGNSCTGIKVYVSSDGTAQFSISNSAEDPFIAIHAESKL
# Experimental: Bakers yeast α-glucosidase [EC 3.2.1.20], and porcine pancreatic α-amylase [EC 3.2.1.1]were used during bioassay guided fractionation. Rat intestinal acetone powder was used as a source of mammalian α-glucosidase.
# as §2
# :wherein A and B are the absorbance of the hydrolysis product in the absence and presence of inhibitor, respectively. Percent inhibition values were expressed as mean±standard deviation.
# Porcine α-Amylase Inhibition Assay
# This assay was performed using the EnzChek® Ultra Amylase Assay kit. Samples were dissolved in DMSO and diluted with 100 mM of 3-morpholinopropanesulfonic acid (MOPS) buffer (pH 6.9) to give a final concentration of […], unless otherwise stated.
# [4] = porcine α-amylase, read-out: Amylase (porcine) IC50
Molecule,IC50 [1] [µM],Glucosidase (rat) % Inhibition at 200 μM [2] [%],"IC50 [3, 4] [µM]","activity against porcine α-amylase, fold greater than acarbose ([3]; relative to acarbose) [fold]",Glucosidase (rat) % Inhibition at 200 μM ([2]; 200 µM) [%],"IC50 ([3]; Amylase (porcine) IC50, porcine α-amylase) [µM]",Glucosidase (yeast) IC50 ([1]; unit given in the name cell for fucoidan) [µg/mL]
"O=c1cc(-c2ccc(O)cc2)oc2cc(O)cc(O)c12 [Compound 18, Apigenin, reference compound]",108,−12.2,,,,,
"COc1cc(C(OC)C(CO)Oc2c(OC)cc(-c3cc(=O)c4c(O)cc(O)cc4o3)cc2OC)ccc1O (stereo not drawn) [Compound 6, tricin-4′-O-[erythro-β-guaiacyl-(7″-O-methyl)-glyceryl]ether]",72,6.1,26.5,,,,
"COc1cc(C(O)C(COC(=O)C=Cc2ccc(O)cc2)Oc2c(OC)cc(-c3cc(=O)c4c(O)cc(O)cc4o3)cc2OC)ccc1O (stereo not drawn) [Compound 8, tricin-4′-O-[threo-β-guaiacyl-(9″-O-p-coumaroyl)-glyceryl]ether]",37.9,,0.9,130,10.0,,
"COc1cc(C(O)C(COC(=O)C=Cc2ccc(O)cc2)Oc2c(OC)cc(-c3cc(=O)c4c(O)cc(O)cc4o3)cc2OC)ccc1O (stereo not drawn) [Compound 7, tricin-4′-O-[erythro-β-guaiacyl-(9″-O-p-coumaroyl)-glyceryl]ether]",37.5,,2,,25.7,,
"COc1cc(-c2cc(=O)c3c(O)cc(O)cc3o2)cc(OC)c1O [Compound 4, Tricin, reference compound]",70.6,16.1,,,,104,
"O=c1cc(-c2ccc(O)c(O)c2)oc2cc(O)cc(O)c12 [Compound 19, Luteolin, reference compound]",92.3,4.8,99.5,,,,
"COc1cc(C(OC)C(CO)Oc2c(OC)cc(-c3cc(=O)c4c(O)cc(O)cc4o3)cc2OC)ccc1O (stereo not drawn) [Compound 5, tricin-4′-O-[threo-β-guaiacyl-(7″-O-methyl)-glyceryl]ether]",95.9,6.1,31.9,,,,
Fucoidan [reference compound],,,,,,,0.82
